According to patent US20240408064A1, “RAS INHIBITORS, COMPOSITIONS AND METHODS OF USE THEREOF” (GENETOLEAD INC., priority 2021, published 2024):

How the values were obtained:
[1] = target: wild type HRAS (Homo sapiens (Human), UniProt P01112); assay: NMR Kd, wild type HRAS; format: binding
Protocol: ^1H/^15N Fast-HSQC experiments (Mori et al., Journal of Magnetic Resonance, Series B, Volume 108, Issue 1, July 1995, Pages 94-98) were recorded at a protein concentration of 50-100 μM.
Dissociation constants were obtained by monitoring changes in chemical shifts as a function of ligand concentration. The changes in chemical shifts (d) were calculated according to the following equation (Williamson, Progress in Nuclear Magnetic Resonance Spectroscopy, Volume 73, August 2013, Pages 1-16): d=√(1/2[δ_H^2+[…]]), Where δ are the changes in chemical shift in ppm for ^1H and ^15N and the correction factor (α) was set at 0.15.
^1H 1D protein-observed experiments were recorded with 15-50 μM protein. The standard Bruker 1D ^1H sequence with excitation sculpting (zgesgp) was employed. A relaxation delay of 1 s was employed in order to use 256 scans while still keeping experimental time fairly short. Changes in protein chemical shift or peak intensity in the methyl region were monitored against compound concentration.
The activity of compounds of the invention regarding wild type HRAS was measured in the same as in Example 80. The results obtained with the compounds in the various assays described above are depicted in Table 2.

[2] = target: HRas^G12V (Homo sapiens (Human), UniProt P01112, G12V); assay: Dissociation constant by ITC; format: binding
HRas^G12V, sequence (P01112 1-166 G12V): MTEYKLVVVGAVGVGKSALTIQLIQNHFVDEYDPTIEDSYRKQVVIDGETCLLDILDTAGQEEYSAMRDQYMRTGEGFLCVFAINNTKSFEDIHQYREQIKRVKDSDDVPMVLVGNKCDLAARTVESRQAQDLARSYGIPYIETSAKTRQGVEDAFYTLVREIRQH
Protocol: ITC experiments were performed using a Nano ITC isothermal titration calorimeter from TA Instruments. Experiments were performed in reverse-mode by titrating 50 μL of protein solution at a concentration of 300-600 μM into 350 μL of ligand solution at concentrations between 10-50 μM. Stir rate was 200-250 rpm with 16-25 injections, each at 2-3 μL with 150 seconds between each injection. Data fitting was performed using Nano ITCRun software.

wild type HRAS, sequence (P01112 whole entry): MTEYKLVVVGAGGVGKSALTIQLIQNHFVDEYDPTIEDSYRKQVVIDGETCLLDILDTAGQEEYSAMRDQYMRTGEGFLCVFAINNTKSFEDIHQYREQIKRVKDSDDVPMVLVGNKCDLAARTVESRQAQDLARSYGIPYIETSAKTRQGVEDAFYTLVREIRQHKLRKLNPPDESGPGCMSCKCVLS

| SMILES | Kd [1] | Kd [2] |
| --- | --- | --- |
| CC(C)N1CCC(NC(=O)Cc2c[nH]c3cc(F)ccc23)CC1 [Compound 10018] | 5180 µM | – |
| CN(C)CC(=O)Nc1cccc(NC(=O)Cc2c[nH]c3cc(F)ccc23)c1 [compound 10097] | – | 17 to 159 µM |
